# Laboratory results from patent US20140017223A1, “Pharmaceutical Compositions Comprising A Pancreatic Enzyme Preparation With Viral Infectivity Reduced Below A Significant Level And Methods Of Preparing And Using The Same” (Aptalis Pharma Canada Inc., priority 2010, published 2014).
# Several values for one entry are separate records, joined by “and”; a condition that tells them apart may be missing. Identical values can stand only once.
# Assays:
# Assay type in all cases: cell-based, porcine parvovirus (PPV)
# PPV [1] = assay: Inactivation of spiked PPV in PEP by BPL, PPV titered by chloroform/PEG method (Example 3)
# From the text: U.S. Patent Publication No. 2009/0226414, incorporated by reference herein, provides a reproducible and efficient method for detecting an infectious non-enveloped virus, such as PPV, in an enzyme preparation (e.g., a pancreatic enzyme preparation) by treating the preparation prior to determining its viral infectivity. This method preserves the infectious non-enveloped virus while substantially eliminating the toxic enzyme materials from the PEP samples.
# The steps of this method include:
# (a) extracting a sample of the preparation at least two times with chloroform to produce a clarified sample with an upper phase and a lower phase;
# (b) precipitating an aliquot of the upper phase from step (a) with polyethylene glycol (PEG);
# (c) suspending the product from step (b) in a buffer;
# (d) precipitating the product from step (c) with PEG;
# (e) suspending the product from step (d) in a solution;
# (f) removing excess PEG and fine particles from product (e) by chloroform, this allows (i) in step (e) the suspending in a 10-times smaller volume to increase the overall sensitivity up to 10-fold; and (ii) removal of the remaining interfering materials from the least diluted steps of the most toxic samples; and
# (g) detecting the presence of or measuring the amount of infectious virus in the solution.
# Pancrelipase powders from 2 different lots were each dissolved in 100 mM Tris, pH=8.3, at a concentration of 100 mg/ml. Two ml non-purified PPV viral stock (prepared using standard protocols (Arella et al., Physicichemical properties, production, and purification of parvoviruses. 1990, In Tijssen, P. (ed.), CRC handbook of parvoviruses. Boca Raton, Fla.: CRC Press, 11-30)) were added to 38 ml of the pancrelipase solution. The virus was mixed with the PEP using slow shaking at room temperature for one day. Aliquots were taken from the PPV-spiked pancrelipase stocks and each was incubated with different concentrations of BPL (available from Sigma-Aldrich, St. Louis, Mo.) (except the control) for 48 hours at room temperature (20° C.). […] Determination of the FFID50 was performed using the fluorescence assay as described in the PPV FFID-infectivity assay of U.S. Patent Publication No. 2009/0226414.
# The experiment described in Example 1 was repeated except PEG-purified PPV was used for the infectivity assay as described in U.S. Patent Publication No. 2009/0226414.
# PPV [2] = assay: Kinetics of PPV inactivation in PEP samples with 0.4% BPL at 4° C. (Example 7); conditions: PEP conc. 100 mg/mL
# Description: Samples prepared in the same way as described in Example 1 were treated at 4° C. in an aqueous media (i.e. mixture of water and isopropyl alcohol).
# PPV [3] = assay: Inactivation of PPV by BPL (30 min, 25° C.) measured from frozen and lyophilized samples (Example 10)
# Description: 4.5 g pancrelipase (PEP) powder was dissolved in 44 ml ice cold 100 mM Tris (pH=8.3) by frequently mixing a 50-ml plastic tube that was kept on ice most of the time except when shaking. The dissolved sample was spiked with 1 ml (2×0.5 ml) PPV stock (prepared at the Institut National de la Recherche Scientifique, Québec, Canada using standard protocols (Arella et al., Physicichemical properties, production, and purification of parvoviruses. 1990, In Tijssen, P. (ed.), CRC handbook of parvoviruses. Boca Raton, Fla.: CRC Press, 11-30)) 10^7 FFID50/ml; see Example 8 and Table 8) and was mixed for another 10 minutes.
# Three aliquots of the dissolved pancrelipase were transferred into tubes (A-C) and kept on ice while (A) no BPL—the control), (B) (0.4 vol % BPL), or (C) (0.8 vol % BPL) was added to them. After a brief mixing by a vortex machine, the tubes were incubated for 30 minutes at 25° C. At the end of the incubation, the tubes were transferred on to ice and immediately four aliquots were transferred from each experimental condition into new tubes (a-d). These tubes were placed into the mixture of acetone/dry ice for fast freezing. Later, the samples were stored at −80° C.
# The experiment above was repeated two more times (altogether: experiments 1-3).
# The frozen samples were lyophilized at −45° C. for two days, and the pancrelipase powders were kept at 4-10° C. Samples a-b from all the experiments were dissolved in water. Infectivity measurements were done with diluted samples using the 400 times diluted samples as the lowest dilution step to determine the FFID50. To easily compare the results for the different experiments, all of the obtained infectivity data were converted to specific infectivity (FFID50/gram PEP). See Example 10 and Table 10.
# Inactivation results for PEP samples containing PPV inactivated by BPL at 25° C. for 30 min which was subsequently inactivated by freezing followed by lyophilization are presented in Table 10.
structure (smiles),measurement,setting,value
"O=C1CCO1 [BPL, Beta-propiolactone]",PPV Titer reduction,"PPV [1]; PEP #1, 0.04% (v/v) BPL",10 FFID50/g
same,PPV Titer reduction,"PPV [1]; PEP #1, 0.10% (v/v) BPL",10 FFID50/g
same,PPV Titer reduction,"PPV [1]; PEP #1, 0.25% (v/v) BPL",10^5 FFID50/g
same,PPV Titer reduction,"PPV [1]; PEP #2, 0.04% (v/v) BPL",10 FFID50/g
same,PPV Titer reduction,"PPV [1]; PEP #2, 0.10% (v/v) BPL",10^2 FFID50/g
same,PPV Titer reduction,"PPV [1]; PEP #2, 0.25% (v/v) BPL",10^5 FFID50/g
same,PPV Titer reduction,"PPV [1]; PEP #3, 0.04% (v/v) BPL",10 FFID50/g
same,PPV Titer reduction,"PPV [1]; PEP #3, 0.10% (v/v) BPL",10^2 FFID50/g
same,PPV Titer reduction,"PPV [1]; PEP #3, 0.25% (v/v) BPL",10^5 FFID50/g
same,PPV Titer reduction,"PPV [1]; PEP #4, 0.04% (v/v) BPL",10 FFID50/g
same,PPV Titer reduction,"PPV [1]; PEP #4, 0.10% (v/v) BPL",10^2 FFID50/g
same,PPV Titer reduction,"PPV [1]; PEP #4, 0.25% (v/v) BPL",10^4 FFID50/g
same,Average PPV titer (log reduction),PPV [2]; reaction time 15 min,1.1 log
same,Average PPV titer (log reduction),PPV [2]; reaction time 30 min,1.6 log
same,Average PPV titer (log reduction),PPV [2]; reaction time 45 min,2 log and 2.0 log
same,Average PPV titer (log reduction),PPV [2]; reaction time 60 min,2.2 log
same,Average PPV titer (log reduction),PPV [2]; reaction time 720 min,4.8 log
same,Reduction of PPV titer,PPV [3]; 0.4% BPL,0.27 × 10^3 FFID50/g
same,Reduction of PPV titer,PPV [3]; 0.8% BPL,1.55 × 10^6 FFID50/g
same,Average Results (per sample a/b),"PPV [3]; 0.8% BPL, 0* means under detection limit",< 0* FFID50/g
same,Average Results (per experiment),"PPV [3]; 0.8% BPL, experiments C1-C3, 0* means under detection limit",< 0* FFID50/g
same,PPV infectivity (single determinations),"PPV [3]; 0.8% BPL, samples C1a-C3b, 0* means under detection limit",< 0* FFID50/g
